Experimental data published in ChEMBL document CHEMBL1201862, “PubChem BioAssay data set” (2004).
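Method: 48-hour compound exposure of cells in 96-well plates, five concentrations, linear interpolation of endpoints. At the GI50, growth is halved.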 Activity calls are given as the source filed them. No stated cut-off is given here; in the data, active = GI50 up to about 1.1 µM and inactive = higher.

What was measured:
Assay in all cases: growth of human tumour cells (NCI), 48 h
786-0 = system: 786-0
A549 = system: A549
ACHN = system: ACHN
CAKI-1 = system: CAKI-1
CCRF-CEM = system: CCRF-CEM
COLO 205 = system: COLO 205
DLD-1 = system: DLD-1
DMS-273 = system: DMS-273
EKVX = system: EKVX
HCC 2998 = system: HCC 2998
HCT-116 = system: HCT-116
HCT-15 = system: HCT-15
HL-60 = system: HL-60
HOP-18 = system: HOP-18
HOP-62 = system: HOP-62
HOP-92 = system: HOP-92
HT-29 = system: HT-29
IGROV-1 = system: IGROV-1
K562 = system: K562
KM-20L2 = system: KM-20L2
KM12 = system: KM12
LOX IMVI = system: LOX IMVI
LXFL 529 = system: LXFL 529
M14 = system: M14
M19-MEL = system: M19-MEL
MOLT-4 = system: MOLT-4
Malme-3M = system: Malme-3M
NCI-H226 = system: NCI-H226
NCI-H23 = system: NCI-H23
NCI-H460 = system: NCI-H460
NCI-H522 = system: NCI-H522
OVCAR-3 = system: OVCAR-3
OVCAR-4 = system: OVCAR-4
OVCAR-5 = system: OVCAR-5
OVCAR-8 = system: OVCAR-8
RPMI-8226 = system: RPMI-8226
RXF 393 = system: RXF 393
RXF 631 = system: RXF 631
SF-268 = system: SF-268
SF-295 = system: SF-295
SF-539 = system: SF-539
SK-MEL-28 = system: SK-MEL-28
SK-MEL-2 = system: SK-MEL-2
SK-MEL-5 = system: SK-MEL-5
SK-OV-3 = system: SK-OV-3
SN12C = system: SN12C
SNB-19 = system: SNB-19
SNB-75 = system: SNB-75
SNB-78 = system: SNB-78
SR = system: SR
SW-620 = system: SW-620
TK-10 = system: TK-10
U-251 = system: U-251
UACC-257 = system: UACC-257
UACC-62 = system: UACC-62
UO-31 = system: UO-31
XF498 = system: XF498
A498 = system: A498
DMS-114 = system: DMS-114

Compound: O=C(O/N=C1/CCCC/C1=C\c1ccccc1)c1ccc(Cl)c(Cl)c1
- GI50 (786-0): 30.2 µM (inactive)
- GI50 (A549): 17.5 µM (inactive)
- GI50 (ACHN): 15.5 µM (inactive)
- GI50 (CAKI-1): 27.3 µM (inactive)
- GI50 (CCRF-CEM): 21.8 µM (inactive)
- GI50 (COLO 205): 28.2 µM (inactive)
- GI50 (DLD-1): 84.5 µM (inactive)
- GI50 (DMS-273): 23.9 µM (inactive)
- GI50 (EKVX): 38.3 µM (inactive)
- GI50 (HCC 2998): > 100 µM (inactive)
- GI50 (HCT-116): 13.6 µM (inactive)
- GI50 (HCT-15): 33.3 µM
- GI50 (HL-60): 14.5 µM (inactive)
- GI50 (HOP-18): > 100 µM (inactive)
- GI50 (HOP-62): 52.5 µM (inactive)
- GI50 (HOP-92): 26.8 µM (inactive)
- GI50 (HT-29): 22.4 µM (inactive)
- GI50 (IGROV-1): 21.5 µM (inactive)
- GI50 (K562): 15.8 µM (inactive)
- GI50 (KM-20L2): 65.3 µM (inactive)
- GI50 (KM12): 46.7 µM (inactive)
- GI50 (LOX IMVI): 20 µM (inactive)
- GI50 (LXFL 529): 14.6 µM (inactive)
- GI50 (M14): > 100 µM (inactive)
- GI50 (M19-MEL): 68.7 µM (inactive)
- GI50 (MOLT-4): 13.3 µM (inactive)
- GI50 (Malme-3M): 0.443 µM (active)
- GI50 (NCI-H226): 45.9 µM (inactive)
- GI50 (NCI-H23): 19.2 µM (inactive)
- GI50 (NCI-H460): 40.3 µM (inactive)
- GI50 (NCI-H522): 18.4 µM (inactive)
- GI50 (OVCAR-3): 21 µM (inactive)
- GI50 (OVCAR-4): 20.7 µM (inactive)
- GI50 (OVCAR-5): 69.2 µM (inactive)
- GI50 (OVCAR-8): 17.9 µM (inactive)
- GI50 (RPMI-8226): 36.2 µM (inactive)
- GI50 (RXF 393): 27.7 µM (inactive)
- GI50 (RXF 631): 16.8 µM (inactive)
- GI50 (SF-268): 11.5 µM (inactive)
- GI50 (SF-295): 31.8 µM (inactive)
- GI50 (SF-539): 24.5 µM (inactive)
- GI50 (SK-MEL-28): 18.3 µM (inactive)
- GI50 (SK-MEL-2): > 100 µM (inactive)
- GI50 (SK-MEL-5): 38.5 µM (inactive)
- GI50 (SK-OV-3): > 100 µM (inactive)
- GI50 (SN12C): 49.8 µM (inactive)
- GI50 (SNB-19): 69.7 µM (inactive)
- GI50 (SNB-75): 27.5 µM (inactive)
- GI50 (SNB-78): 19.1 µM (inactive)
- GI50 (SR): 8.2 µM (inactive)
- GI50 (SW-620): 18.7 µM (inactive)
- GI50 (TK-10): 23.2 µM (inactive)
- GI50 (U-251): 17.3 µM (inactive)
- GI50 (UACC-257): > 100 µM (inactive)
- GI50 (UACC-62): 17.1 µM (inactive)
- GI50 (UO-31): 17.9 µM (inactive)
- GI50 (XF498): 48.8 µM (inactive)

Compound: COc1ccc(OC)c(NC(=O)CCC/C(CC(=O)c2ccc(O)c(OC)c2)=N\NC(=O)C[N+](C)(C)C)c1
- GI50 (786-0): > 100 µM (inactive)
- GI50 (A498): > 100 µM (inactive)
- GI50 (A549): > 100 µM (inactive)
- GI50 (ACHN): > 100 µM (inactive)
- GI50 (CAKI-1): > 100 µM (inactive)
- GI50 (CCRF-CEM): > 100 µM (inactive)
- GI50 (COLO 205): > 100 µM (inactive)
- GI50 (DLD-1): > 100 µM (inactive)
- GI50 (DMS-114): > 100 µM (inactive)
- GI50 (DMS-273): > 100 µM (inactive)
- GI50 (EKVX): > 100 µM (inactive)
- GI50 (HCC 2998): > 100 µM (inactive)
- GI50 (HCT-15): > 100 µM
- GI50 (HL-60): > 100 µM (inactive)
- GI50 (HOP-18): > 100 µM (inactive)
- GI50 (HOP-62): > 100 µM (inactive)
- GI50 (HOP-92): > 100 µM (inactive)
- GI50 (HT-29): > 100 µM (inactive)
- GI50 (IGROV-1): > 100 µM (inactive)
- GI50 (K562): > 100 µM (inactive)
- GI50 (KM-20L2): > 100 µM (inactive)
- GI50 (KM12): > 100 µM (inactive)
- GI50 (LOX IMVI): > 100 µM (inactive)
- GI50 (LXFL 529): > 100 µM (inactive)
- GI50 (M14): > 100 µM (inactive)
- GI50 (M19-MEL): > 100 µM (inactive)
- GI50 (MOLT-4): > 100 µM (inactive)
- GI50 (Malme-3M): > 100 µM (inactive)
- GI50 (NCI-H226): > 100 µM (inactive)
- GI50 (NCI-H23): > 100 µM (inactive)
- GI50 (NCI-H460): > 100 µM (inactive)
- GI50 (NCI-H522): > 100 µM (inactive)
- GI50 (OVCAR-3): > 100 µM (inactive)
- GI50 (OVCAR-4): > 100 µM (inactive)
- GI50 (OVCAR-5): > 100 µM (inactive)
- GI50 (OVCAR-8): > 100 µM (inactive)
- GI50 (RPMI-8226): 79.3 µM (inactive)
- GI50 (RXF 631): > 100 µM (inactive)
- GI50 (SF-268): > 100 µM (inactive)
- GI50 (SF-295): > 100 µM (inactive)
- GI50 (SF-539): > 100 µM (inactive)
- GI50 (SK-MEL-28): > 100 µM (inactive)
- GI50 (SK-MEL-2): > 100 µM (inactive)
- GI50 (SK-MEL-5): > 100 µM (inactive)
- GI50 (SK-OV-3): > 100 µM (inactive)
- GI50 (SN12C): > 100 µM (inactive)
- GI50 (SNB-19): > 100 µM (inactive)
- GI50 (SNB-75): 84.7 µM (inactive)
- GI50 (SR): > 100 µM (inactive)
- GI50 (SW-620): > 100 µM (inactive)
- GI50 (TK-10): > 100 µM (inactive)
- GI50 (U-251): > 100 µM (inactive)
- GI50 (UACC-257): > 100 µM (inactive)
- GI50 (UACC-62): > 100 µM (inactive)
- GI50 (UO-31): > 100 µM (inactive)
- GI50 (XF498): > 100 µM (inactive)
